Test results from the NIST ThermoML archive (doi:10.1021/acs.jced.9b00171).
± gives the expanded uncertainty stated by the source.

How the values were obtained:
[1] = refractive index (Na D-line) (dimensionless); wn = mass fraction of the nth substance listed; settings: 101.3 kPa, Liquid, Standard Abbe refractometry
[2] = wn = mass fraction of the nth substance listed; settings: 101.3 kPa, Liquid, Oscillating disk viscometry

NCCNCCO [N-(2-aminoethyl)ethanolamine] + O
Settings	refractive index, [1]	viscosity, [2] [mPa·s]
293.15 K, w1 = 0.05	1.3406 ± 0.0027	1.2 ± 0.29
293.15 K, w1 = 0.1	1.3452 ± 0.0029	1.6 ± 0.38
293.15 K, w1 = 0.15	1.351 ± 0.0033	2.02 ± 0.47
293.15 K, w1 = 0.2	1.3582 ± 0.0036	2.58 ± 0.62
293.15 K, w1 = 0.25	1.366 ± 0.004	3.47 ± 0.86
293.15 K, w1 = 0.3	1.3752 ± 0.0042	4.73 ± 1.1
298.15 K, w1 = 0.05	1.3401 ± 0.0027	1.11 ± 0.25
298.15 K, w1 = 0.1	1.3446 ± 0.0029	1.36 ± 0.31
298.15 K, w1 = 0.15	1.3504 ± 0.0033	1.74 ± 0.41
298.15 K, w1 = 0.2	1.3575 ± 0.0036	2.22 ± 0.53
298.15 K, w1 = 0.25	1.3652 ± 0.004	2.98 ± 0.73
298.15 K, w1 = 0.3	1.3744 ± 0.0042	3.95 ± 0.94
303.15 K, w1 = 0.05	1.3394 ± 0.0027	0.95 ± 0.22
303.15 K, w1 = 0.1	1.3438 ± 0.0029	1.18 ± 0.27
303.15 K, w1 = 0.15	1.3496 ± 0.0033	1.48 ± 0.34
303.15 K, w1 = 0.2	1.3567 ± 0.0036	1.89 ± 0.44
303.15 K, w1 = 0.25	1.3643 ± 0.0039	2.37 ± 0.59
303.15 K, w1 = 0.3	1.3735 ± 0.0042	3.32 ± 0.81
308.15 K, w1 = 0.05	1.3387 ± 0.0027	0.85 ± 0.19
308.15 K, w1 = 0.1	1.343 ± 0.0029	1.06 ± 0.24
308.15 K, w1 = 0.15	1.3487 ± 0.0033	1.32 ± 0.3
308.15 K, w1 = 0.2	1.3558 ± 0.0036	1.63 ± 0.37
308.15 K, w1 = 0.25	1.3633 ± 0.0039	2.08 ± 0.48
308.15 K, w1 = 0.3	1.3724 ± 0.0042	2.61 ± 0.62
313.15 K, w1 = 0.05	1.3378 ± 0.0027	0.76 ± 0.17
313.15 K, w1 = 0.1	1.3421 ± 0.0028	0.94 ± 0.21
313.15 K, w1 = 0.15	1.3476 ± 0.0033	1.17 ± 0.26
313.15 K, w1 = 0.2	1.3548 ± 0.0036	1.41 ± 0.32
313.15 K, w1 = 0.25	1.3622 ± 0.0039	1.76 ± 0.4
313.15 K, w1 = 0.3	1.3712 ± 0.0041	2.19 ± 0.5
318.15 K, w1 = 0.05	1.3368 ± 0.0027	0.69 ± 0.15
318.15 K, w1 = 0.1	1.341 ± 0.0028	0.84 ± 0.19
318.15 K, w1 = 0.15	1.3464 ± 0.0033	1.03 ± 0.23
318.15 K, w1 = 0.2	1.3536 ± 0.0036	1.24 ± 0.28
318.15 K, w1 = 0.25	1.361 ± 0.0039	1.53 ± 0.35
318.15 K, w1 = 0.3	1.3698 ± 0.0041	1.86 ± 0.42
323.15 K, w1 = 0.05	1.3358 ± 0.0026	0.64 ± 0.14
323.15 K, w1 = 0.1	1.3398 ± 0.0028	0.77 ± 0.17
323.15 K, w1 = 0.15	1.3451 ± 0.0033	0.92 ± 0.2
323.15 K, w1 = 0.2	1.3523 ± 0.0036	1.08 ± 0.24
323.15 K, w1 = 0.25	1.3597 ± 0.0038	1.28 ± 0.29
323.15 K, w1 = 0.3	1.3682 ± 0.004	1.59 ± 0.36
328.15 K, w1 = 0.05	1.3347 ± 0.0026	0.59 ± 0.13
328.15 K, w1 = 0.1	1.3385 ± 0.0027	0.7 ± 0.15
328.15 K, w1 = 0.15	1.3436 ± 0.0032	0.82 ± 0.18
328.15 K, w1 = 0.2	1.3508 ± 0.0036	0.95 ± 0.2
328.15 K, w1 = 0.25	1.3582 ± 0.0038	1.11 ± 0.24
328.15 K, w1 = 0.3	1.3664 ± 0.0039	1.35 ± 0.3
333.15 K, w1 = 0.05	1.3335 ± 0.0025	0.55 ± 0.12
333.15 K, w1 = 0.1	1.3371 ± 0.0027	0.64 ± 0.14
333.15 K, w1 = 0.15	1.342 ± 0.0032	0.74 ± 0.16
333.15 K, w1 = 0.2	1.3491 ± 0.0036	0.87 ± 0.19
333.15 K, w1 = 0.25	1.3566 ± 0.0038	1.02 ± 0.22
333.15 K, w1 = 0.3	1.3648 ± 0.0039	1.2 ± 0.26
